Reference: patent US6762176B1, “2-aminopyridine derivatives, their use as medicines and pharmaceutical compositions containing them” (Societe de Consells de Recherches et D'Applications …, priority 1998, dated 2004)
Counter-ions that a name gives are not always drawn.

| SMILES | melting point [°C] |
| --- | --- |
| Cc1cc(N)nc(CCCCNC(=O)C2(C)CCc3c(C)c(O)c(C)c(C)c3O2)c1.O=C(O)/C=C/C(=O)O (centres unmarked) | 131 to 136 |
| Cc1c(C)c2c(c(C)c1O)CCC(C)(C(=O)N1CCN(CCC#Cc3ccc(N)nc3)CC1)O2.Cl (centres unmarked) | 210 to 212 |
| Cc1c(C)c2c(c(C)c1O)CCC(C)(C(=O)N1CCN(CCCCc3ccc(N)nc3)CC1)O2.Cl (centres unmarked) | 221 to 223 |
| COc1cc(C=CCNCCCCc2cc(C)cc(N)n2)ccc1O (as salt: hydrochloride) [Example 26, 6-amino-N-[13-(4-hydroxy-3-metboxy-phenyl)-2-propenyl]4-methyl-2-pyridinebutanamine hydrochloride] | 60 to 62 |
| Cc1cc(N)nc(CCCCNC(=O)c2ccc3c(c2)OCO3)c1.Cl [Example 23, N-[(6-amino-4-methyl-2-pyridinyl)butyl]-1,3-benzodioxole-5-carboxamide hydrochloride] | 176 to 178 |
| Cc1cc(N)nc(CCCCNCc2ccc3c(c2)OCO3)c1.O=C(O)/C=C/C(=O)O [Example 29, N-[4-(6-amino-4-methyl-2-pyridinyl)butyl]-N-(1,3-benzodioxole-5-ylmethyl)amine fumarate] | 224 to 226 |
| Cc1cc(N)nc(CCCCNC/C=C/c2ccccc2)c1.O=C(O)/C=C/C(=O)O [Example 30, N-[4-(6-amino-4-methyl-2-pyridinyl)butyl]-N-[(E)-3-phenyl-2-propenyl]amine fumarate] | 163 to 165 |
| Cc1cc(N)nc(CCCCNC(=O)/C=C/c2ccc3c(c2)OCO3)c1.O=C(O)/C=C/C(=O)O [Example 31, (E)-N-[4-(6-amino-4-methyl-2-pyridinyl)butyl]-3-(1,3-benzodioxole-5-yl)-2-propenamide fumarate] | 111 to 113 |
